Where two headings read alike, the source gives them in different places.
Key:
[1] = system: mouse microglial cells (BV-2); test: Cell viability, PrestoBlue (immunotoxicity); assay type: cell-based; settings: Mus musculus, BV-2, 24 h
Description: The mouse microglial cells (BV-2) were cultured using standard procedures. The cells were a generous gift from professor Bozena Kaminska-Kaczmarek from Laboratory of Molecular Neurobiology, Neurobiology Center, Nencki Institute of Experimental Biology, Polish Academy of Sciences, Warsaw, Poland. The cells were cultured in Dulbecco’s Modified Eagle’s Medium - high glucose, (DMEM, Glutamx ThermoFisher ) supplemented with 10% fetal bovine serum heat inactivated (ThermoFisher), with added 100 IU/ml penicillin (Sigma Aldrich) and 100 µg/ml streptomycin (Sigma Aldrich). […]
an area of 175 cm2 (Nunc), and incubated at 37◦C, 5% CO2. For the test of compounds with the BV-2 cells line, microglia cells were seeded on 96-well culture plate (Falcon) at a density of 2x10^4 cells per well in fresh medium. The cells were grown for 24 hours in the incubator (37°C, 5% CO2) before performing experiments. […]
Preparation of stock solutions of tested compounds
Stock solutions were prepared in the concentration of 10 mM for test and reference compounds. Minimum 1 mg of each tested compound was weighed and dissolved in appropriate volume of dimethyl sulfoxide. Serial dilutions were prepared in DMSO and then the diluted compounds were transferred to PBS. Before assays eventual precipitation or opalescence was checked. All experiments were performed in duplicates, in three independent experiments. Cell viability was measured after 24 hours of incubation with tested cell line.
Cell viability was evaluated using the Presto Blue reagent (Thermo Fisher), according to the manufacturer procedures. Following 24 hours of incubation with the tested molecule, PrestoBlue reagent was added to a microplate well in an amount equal to one tenth of the remaining medium volume. The resulting mixture was incubated for 15 minutes at 37°C, and the fluorescence intensity (EX 530; EM 580 nm) was measured in the plate reader POLARstar Omega, (BMG Labtech). The results (viability values) are provided as a percentage of live cells with respect to DMSO (control sample).
Viability values were calculated as a percentage of live cells with respect to the control sample (DMSO). The negative control was medium without cells. IC 50 was determined by […]
(§1) nonlinear regression analysis using GraphPad Prism 9.0 software. All values are expressed as […]
(§2) Table S10. The viability of cells. neurotoxicity immuntoxicity
(§3) The results (viability values) are provided as a percentage of live cells with respect to DMSO (control sample)
Table S11. The viability of cells.

[2] = biological target: T1, human norepinephrine transporter (Homo sapiens, UniProt P23975); test: Norepinephrine Transporter Competition Binding Assay; settings: NET Ki
T1 construct: expressed in transfected cells
Description: Norepinephrine Transporter Competition Binding Assay
Preparation of solutions of test and reference compounds
First, 10 mM stock solutions of tested compounds were prepared in DMSO. Serial dilutions of compounds were prepared in a 96-well microplate in an assay buffer using the automated pipetting system epMotion 5070. Each compound was tested in 8 concentrations ranging from 10^-3 to 10^-10 M (final concentration).
Radioligand binding was performed using membranes from the MDCK cell line stably transfected with the human norepinephrine transporter. All assays were carried out in duplicates. Volumes of 50 µl working solution of the tested compounds, 50 µl [ 3H]- Nisoxetine (spec. act. 80.2 Ci/mmol, final concentration 4 nM), and 150 µl diluted membranes (5 µg protein per well) prepared in assay buffer (50 mM Tris -HCl, pH 7.4; 120 mM NaCl; 5 mM KCl) were transferred to polypropylene 96-well microplate using 96-wells pipetting station Rainin Liquidator. Desipramine (10 μM) was used to define nonspecific binding. The microplate was covered with sealing tape, mixed, and incubated for 60 minutes at 4 °C. The reaction was terminated by rapid filtration through GF/B filter mate presoaked with 0.5% polyethyleneimine for 30 minutes. Five rapid washes with 300 µl 50 mM Tris buffer (4 °C, pH 7.4) were performed using a 96 -well FilterMate harvester. The filter mates were dried at 37 °C in the forced air fan incubator, and then, solid scintillator MeltiLex B/HS was melted on filter mates at 90 °C for 4 minutes. Radioactivity was counted in the MicroBeta2 scintillation counter (PerkinElmer). Data were fitted to a one -site curve-fitting equation with Prism 8.0 (GraphPad Software), and Ki values were estimated from the […]
Result of Norepinephrine Transporter Competition Binding Assay
Table S9. Results of binding to norepinephrine transporter (NET) of tested compounds COMPOUND Ki [nM] pKi Ki [nM] pKi Ki [nM] pKi

[3] = biological target: T2, human CYP2D6 (Homo sapiens, UniProt P10635); test: Inhibition of human CYP450 isoforms (Vivid kits); assay type: in vitro ADME; settings: recombinant CYP2D6, 10 min
T2 construct: purchased Thermo Fisher Scientific
Description: as §1, §2, §3
Table S11. The viability of cells. […]
Inhibition of human CYP450 isoforms
The inhibitory potential of compound 6 toward human CYP1A2, CYP2C9, CYP2D6, and CYP3A4 enzymes was assessed using Vivid® CYP450 Screening Kits (Thermo Fisher Scientific, Waltham, MA, USA). A six -point concentration gradient of compound 6 was prepared in reaction buffer and pipetted onto a black 96 -well plate (Brand, Wertheim Germany) and then a mixture of the respective recombinant CYP isoenzyme and the NADPH regeneration system was added, following the manufacturer’s instructions. The DMSO concentration was maintained at 0.5% in all reaction v ariants including controls. […]
adding NADP+ and the respective CYP isoenzyme substrate. After a further 10-minute incubation at 37°C, the formation of the reaction product was measured as fluorescence using a SPARK microplate reader (TECAN, Männedorf, Switzerland). The half-maximal inhibitory concentration (IC50) values were calculated by fitting the data to sigmoidal Hill curves using GraphPad Prism version 10.1.2. […]

[4] = biological target: T3, eqBuChE (Equus caballus, UniProt P81908); test: biochemical; settings: means±SEM of at least three experiments
T3 construct: purchased Sigma-Aldrich

[5] = biological target: T4, eeAChE (Electrophorus electricus, UniProt O42275); test: Cholinesterase inhibition, Ellman's protocol, eeAChE; assay type: biochemical; settings: read-out: eeAChE % inh.
T4 construct: purchased Sigma-Aldrich
Description: In vitro pharmacological assays.
The in vitro inhibitory activity toward cholinesterases (eeAChE, eqBuChE,
The target compounds were tested for their inhibitory potency against cholinesterases using
Ellman’s protocol[32] modified for 96-well microplates.
The stock solutions of the
target compounds were prepared in DMSO and diluted with water, giving the desired final
concentrations. The enzymes were prepared as 5 U/mL aqueous stock solutions and diluted
(AChE or BuChE) were added to the reaction mixture in the wells, containing 25 μL of the
target compound (in case of blank samples – water or water/DMSO mixture), 200 μL of 0.1
M phosphate buffer (pH = 8.0) and 20 μL of 5,5'-dithiobis-(2-nitrobenzoic acid) DTNB
All those reagents were preincubated for 5 min at 25 °C for the reactions with the
animal enzymes (eeAChE or eqBuChe) and 36 °C for the human enzyme ( hBuChE) tests. The
enzymatic reaction was initiated by the addition of 20 μL of substrate acetylthiocholine iodide
using the EnSpire multimode microplate reader (PerkinElmer, Waltham, MA, USA). Target
compounds were tested at the screening concentrations of 10 μM or 1 µM for inhibitory
potencies towards animal cholinesterases or human enzyme, respectively. Percent of enzyme
inhibition was calculated based on the formula 100 -(S/B)x100, where S and B were the
respective enzyme activities with and without the test compound, respectively. Compounds
with the enzyme inhibitory activities at 10 μM better than 50% ( eeAChE or eqBuChe) and at
were based on the absorbance measured at seven different inhibitor concentrations, then
percentages of enzymes’ inhibition were plotted against the applied inhibitor concentrations
using nonlinear regression (GraphPad Prism 9; GraphPad Software, San Diego, CA, USA).
All the experiments were performed in
a %inh. at an inhibitor concentration of 10 µM

[6] = biological target: serotonin transporter (SERT) (Homo sapiens, UniProt P31645); test: Interaction with serotonin transporter
[7] = biological target: T5, human serotonin 5-HT1A receptor (Homo sapiens, UniProt P08908); test: cAMP 5-HT1A functional assay; assay type: cell-based
T5 construct: host or cells: CHO-K1
Description: Functional assays for 5-HT1A receptor
Tested and reference compounds were dissolved in DMSO to the concentration of 10 mM.
Dilutions were prepared in a 96-well microplate in assay buffers. For 5-HT1A receptors,
adenylyl cyclase activity was determined using cryopreserved CHO-K1 cells expressing the
The final concentration of DMSO in the test solutions was
The functional assay was performed with the CHO-K1 cells with expression of the 5-HT1A
The cells were cultured under selective conditions (400 μg/mL Geneticin G418)
(PerkinElmer). Thawed cells were resuspended in stimulation buffer (HBSS, 5 mM HEPES,
The same volume (10 μL) of cell
suspension was added to tested compounds with 10 μM forskolin. Samples were loaded onto
a white opaque half-area 96-well microplate. Cell stimulation was performed for 40 min at
room temperature. After incubation, cAMP measurements were performed with homogeneous
time-resolved fluorescence resonance energy transfer (TR-FRET) immunoassay using the
LANCE Ultra cAMP kit (PerkinElmer, USA). Ten microliters of EucAMP Tracer Working
Solution and 10 μL of ULight-anti-cAMP Tracer Working Solution were added, mixed, and
incubated for 1 h. The TR-FRET signal was read on an EnVision microplate reader
(PerkinElmer, USA). Emax values were defined as the ligand response expressed as a […]
which 50% of its maximal response was measured.

[8] = system: SH-SY5Y cells; test: Intracellular O2•-, DHE probe, SH-SY5Y; assay type: cell-based, human

T1 sequence (P23975 whole entry): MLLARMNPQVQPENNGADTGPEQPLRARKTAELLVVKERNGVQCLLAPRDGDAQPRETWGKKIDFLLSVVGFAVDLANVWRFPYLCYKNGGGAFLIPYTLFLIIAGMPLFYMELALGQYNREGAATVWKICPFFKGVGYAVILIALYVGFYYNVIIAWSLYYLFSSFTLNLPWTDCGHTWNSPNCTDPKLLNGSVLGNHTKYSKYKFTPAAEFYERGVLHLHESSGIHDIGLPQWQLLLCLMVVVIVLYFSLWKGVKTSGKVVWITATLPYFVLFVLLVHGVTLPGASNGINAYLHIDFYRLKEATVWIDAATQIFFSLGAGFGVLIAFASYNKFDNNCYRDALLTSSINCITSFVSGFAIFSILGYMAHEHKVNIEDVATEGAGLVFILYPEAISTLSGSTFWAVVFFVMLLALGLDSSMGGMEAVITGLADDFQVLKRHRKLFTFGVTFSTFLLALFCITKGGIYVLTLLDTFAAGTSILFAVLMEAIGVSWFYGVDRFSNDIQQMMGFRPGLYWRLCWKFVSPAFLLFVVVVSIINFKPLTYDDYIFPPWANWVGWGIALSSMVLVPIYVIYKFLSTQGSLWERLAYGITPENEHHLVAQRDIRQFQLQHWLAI
T5 sequence (P08908 whole entry): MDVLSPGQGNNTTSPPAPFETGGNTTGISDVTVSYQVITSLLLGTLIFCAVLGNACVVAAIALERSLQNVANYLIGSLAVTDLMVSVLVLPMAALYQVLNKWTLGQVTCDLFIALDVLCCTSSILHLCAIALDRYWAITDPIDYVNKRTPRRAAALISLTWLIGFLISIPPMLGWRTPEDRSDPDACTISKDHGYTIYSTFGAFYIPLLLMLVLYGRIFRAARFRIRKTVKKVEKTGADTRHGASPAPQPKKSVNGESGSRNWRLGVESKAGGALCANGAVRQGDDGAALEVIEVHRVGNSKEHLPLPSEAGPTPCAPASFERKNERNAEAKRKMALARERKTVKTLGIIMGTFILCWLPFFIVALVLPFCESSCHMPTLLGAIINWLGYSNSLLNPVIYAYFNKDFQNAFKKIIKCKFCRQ
T3 sequence (P81908 whole entry): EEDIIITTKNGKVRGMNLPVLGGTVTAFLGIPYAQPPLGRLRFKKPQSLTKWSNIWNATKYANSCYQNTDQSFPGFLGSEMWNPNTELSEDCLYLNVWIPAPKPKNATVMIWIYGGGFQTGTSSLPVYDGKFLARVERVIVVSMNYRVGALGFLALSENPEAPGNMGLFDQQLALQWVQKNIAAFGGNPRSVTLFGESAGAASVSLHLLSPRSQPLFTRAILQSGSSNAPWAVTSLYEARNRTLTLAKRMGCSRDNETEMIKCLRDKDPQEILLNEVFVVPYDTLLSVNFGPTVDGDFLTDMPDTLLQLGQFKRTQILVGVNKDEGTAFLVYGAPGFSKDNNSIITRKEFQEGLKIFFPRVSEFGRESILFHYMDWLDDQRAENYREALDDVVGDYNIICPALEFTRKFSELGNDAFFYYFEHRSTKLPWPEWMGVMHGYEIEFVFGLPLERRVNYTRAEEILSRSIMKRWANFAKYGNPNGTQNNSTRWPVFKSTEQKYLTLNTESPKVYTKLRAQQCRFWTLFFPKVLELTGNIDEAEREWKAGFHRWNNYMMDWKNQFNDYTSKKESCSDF
T2 sequence (P10635 whole entry, canonical isoform): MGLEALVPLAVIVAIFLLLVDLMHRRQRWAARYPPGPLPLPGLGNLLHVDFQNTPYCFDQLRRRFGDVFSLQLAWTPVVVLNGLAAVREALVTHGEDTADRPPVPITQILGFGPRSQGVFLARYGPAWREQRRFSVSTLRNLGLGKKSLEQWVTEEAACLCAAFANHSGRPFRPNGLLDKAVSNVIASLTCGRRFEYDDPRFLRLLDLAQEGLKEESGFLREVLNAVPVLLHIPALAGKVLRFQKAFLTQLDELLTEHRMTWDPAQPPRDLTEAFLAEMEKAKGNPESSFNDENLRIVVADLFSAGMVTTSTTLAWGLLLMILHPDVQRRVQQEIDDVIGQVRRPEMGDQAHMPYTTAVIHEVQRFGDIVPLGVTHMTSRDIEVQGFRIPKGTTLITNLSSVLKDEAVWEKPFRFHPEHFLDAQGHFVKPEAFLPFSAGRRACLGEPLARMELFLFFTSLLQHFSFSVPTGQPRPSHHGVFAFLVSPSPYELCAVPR
T4 sequence (O42275 24-633): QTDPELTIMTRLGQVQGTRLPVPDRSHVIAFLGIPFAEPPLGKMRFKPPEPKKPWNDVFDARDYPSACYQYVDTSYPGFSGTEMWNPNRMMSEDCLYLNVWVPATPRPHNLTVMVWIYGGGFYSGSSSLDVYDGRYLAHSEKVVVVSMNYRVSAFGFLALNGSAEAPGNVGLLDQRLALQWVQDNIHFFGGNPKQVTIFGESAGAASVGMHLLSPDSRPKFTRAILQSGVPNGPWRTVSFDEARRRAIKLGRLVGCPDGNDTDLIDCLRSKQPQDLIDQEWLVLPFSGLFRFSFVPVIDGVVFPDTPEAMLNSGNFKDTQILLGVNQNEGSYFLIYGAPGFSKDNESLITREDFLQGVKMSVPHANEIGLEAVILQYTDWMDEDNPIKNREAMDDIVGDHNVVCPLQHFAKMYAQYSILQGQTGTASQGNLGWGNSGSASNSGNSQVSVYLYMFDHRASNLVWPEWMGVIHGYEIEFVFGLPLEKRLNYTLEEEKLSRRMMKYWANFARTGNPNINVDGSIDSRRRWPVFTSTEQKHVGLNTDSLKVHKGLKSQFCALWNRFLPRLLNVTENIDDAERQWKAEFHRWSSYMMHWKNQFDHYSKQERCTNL
Sequence of serotonin transporter (SERT) (P31645 whole entry, species assumed): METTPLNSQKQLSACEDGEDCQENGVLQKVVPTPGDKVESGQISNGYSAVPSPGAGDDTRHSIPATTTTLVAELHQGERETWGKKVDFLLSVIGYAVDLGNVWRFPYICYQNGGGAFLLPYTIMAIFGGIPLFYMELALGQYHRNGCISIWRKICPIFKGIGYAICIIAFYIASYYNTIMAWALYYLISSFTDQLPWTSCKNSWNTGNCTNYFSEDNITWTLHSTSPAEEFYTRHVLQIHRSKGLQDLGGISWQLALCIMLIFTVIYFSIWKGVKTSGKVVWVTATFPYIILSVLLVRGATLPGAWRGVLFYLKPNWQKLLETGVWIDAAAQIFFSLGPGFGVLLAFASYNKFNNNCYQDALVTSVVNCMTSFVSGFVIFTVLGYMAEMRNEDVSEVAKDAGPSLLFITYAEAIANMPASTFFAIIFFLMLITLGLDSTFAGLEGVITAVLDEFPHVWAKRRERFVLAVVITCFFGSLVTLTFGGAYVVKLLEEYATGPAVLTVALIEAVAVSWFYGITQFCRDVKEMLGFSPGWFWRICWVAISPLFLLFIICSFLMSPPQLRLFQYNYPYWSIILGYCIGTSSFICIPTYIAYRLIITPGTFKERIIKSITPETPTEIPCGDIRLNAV

## O[C@H](CNCC1CC1)[C@H](Cc1ccccc1)NC1c2ccccc2-c2ccccc21 [Compound 6]
[1]; read-out: IMMUNOTOXICTY IC50
  IC50: 18900 nM
[1]; read-out: IMMUNOTOXICTY pIC (converted)
  IC50: 19100 nM
[2]
  Ki: 837 nM
[2]; third Ki column (likely the mean)
  Ki: 774 nM
[2]; [3H]-Nisoxetine
  Ki: 714 nM
[3]
  CYP2D6 inhibition: CYP2D6 inhibitor
[4]
  IC50: 310 ± 10 nM
[5]
  inhibition at 10 µM: < 10%
[6]
  interaction with SERT: ruled out interactions
[7]; read-out: 5-HT1A agonist mode E max % [10^-5 M]
  Emax: 15%
[7]; read-out: 5-HT1A antagonist mode E max %
  Emax: 16%
[8]; all concentrations and times
  increase in intracellular O2•-: No significant increase
[8]; conc. = IC50, 24 h
  decrease of O2•- level: 15%

Source: publication PMC11796312, “Multifunctional, Fluorene‐Based Modulator of Cholinergic and GABAergic Neurotransmission as a Novel Drug Candidate for Palliative Treatment of Alzheimer's Disease” (Angewandte Chemie (International Ed. in English), 2024)
